Assays:
[1] = test system: ERK phosphorylation level in DLD-1 cells; assay: Inhibition of ERK phosphorylation level in DLD-1 cells (intracellular western blot); format: cell-based; details: summary statement
Description: Intracellular western blot quantitative analysis was used to detect the inhibitory level of compounds on ERK phosphorylation in DLD-1 cells.
DLD-1 cells (ATCC, CCL-221) were seeded in a T75 culture flask at 2.5×10^6 cells/flask, and cultured in a RPMI 1640 medium containing 10% FBS for 2 days. On day 3, the cells were seeded on a 384-well plate, and cultured overnight at 37 °C, 5% CO2. After overnight culture, the plate was added with serially diluted compounds (the final content of DMSO was 0.5%), the negative group was added with DMSO, and incubated in a 37 °C, 5% CO2 incubator.
The cells were fixed, washed once with PBS, treated to disrupt membranes, and blocked at room temperature for 1 h. The blocking solution was removed. The plate was added with primary antibody (CST, Cat. No. #4370S), and incubated overnight at 4 °C The plate was washed 3 times with PBST (PBS solution added with 0.05% Tween-20), and soaked for 2 min each time. The plate was added with secondary antibody (LI-COR, Cat. No. 926-32211), and incubated at room temperature in the dark. The plate was washed 3 times with PBST, and soaked for 2 min each time.
The plate was centrifuged at 1000 rpm for 1 min, scanned on a two-color infrared laser imaging system (Odyssey® CLX) to read the signal.
Relative signal=800-channel signal values/700-channel signal values. […]
IC50 values were calculated using Graphpad 5 software.

CYP3A4 = target: T1, CYP3A4 (Homo sapiens, UniProt P08684); assay: Inhibition of cytochrome P450 CYP3A4 (substrates midazolam and testosterone); format: in vitro ADME; details: role: inhibitor; summary statement
T1 construct: probe substrates midazolam and testosterone, ketoconazole control
Description: The inhibitory potential of compounds on cytochrome P450 (CYP450) subtype CYP3A4 (two substrates of midazolam and testosterone) was detected. First, the compound to be tested was prepared into a 10 mM stock solution in DMSO solvent, and the CYP3A4 inhibitor ketoconazole was prepared as 10 mM, 2.5 mM, and 2.5 mM stock solutions in DMSO solvent. The test compound and ketoconazole were diluted to 400-fold final concentration (compound: 10 μM, ketoconazole: 2.5 μM) with acetonitrile.
NADPH cofactor (10 mL of potassium phosphate buffer added with 66.7 mg NADPH) at 4-fold final concentration and substrates were prepared with potassium phosphate buffer (0.1 M, pH=7.4), with CYP3A4 substrate midazolam at a final concentration of 320 μM and CYP3A4 substrate testosterone at a final concentration of 20 μM.
A human liver microsome solution at a concentration of 0.2 mg/mL was prepared with potassium phosphate buffer on ice. A solution of the compound to be tested and a control inhibitor (control compound) solution at 2-fold final concentration were prepared with the human liver microsome solution on ice. The test wells were added with 30 mL of the test compound solution and the control inhibitor solution respectively, and then added with 15 mL of the substrate for duplication. […]

Mia Paca-2 tumor = assay: In vivo efficacy on Mia Paca-2 pancreatic cancer (alone or with trametinib); parameters: species or system mice
Description: After one week of adaptive feeding of mice, Mia Paca-2 cells in a logarithmic phase were resuspended in serum-free DMEM, and then mixed with Matrigel in a ratio of 1:1. 1×10^7 Mia Paca-2 cells were inoculated subcutaneously at the right flank at 100 μL per mouse, and tumor growth was observed regularly. When the tumor grew to an average volume of 150 to 200 mm^3, the mice were randomly divided into a model group and an administration group (single drug, in combination with trametinib) based on the tumor size and body weight. The tumor size and body weight were measured and recorded before and during the administration. After the treatment, the tumor size in the model group was compared with that in the administration group to determine the efficacy.

NCI-H1975 tumor = assay: In vivo efficacy on NCI-H1975 non-small cell lung cancer (in combination with osimertinib); parameters: species or system mice
Description: NCI-H1975 tumor cells were cultured in an incubator at 37 °C and 5% CO2 using medium containing inactivated RPMI 1640+10% FBS. After reaching a confluency rate of 80 to 90%, the cells were passaged by subculturing. After one week of adaptive feeding in mice, NCI-H1975 cells in logarithmic phase were inoculated subcutaneously into the right flank of mice at a concentration of 5×10^6/100 μL. Tumor growth was regularly monitored until the tumors reached an average volume of 100 to 150 mm^3. […] Tumor size and animal weight were measured and recorded before and during the administration process. The differences in tumor size between the model group and administration group were compared to determine the efficacy.

KRAS G12C-SOS1 = target: T2, KRAS G12C-SOS1 (Homo sapiens, UniProt Q07889); assay: Inhibitory effect on KRAS G12C-SOS1; format: biochemical; parameters: SOS1 catalytic domain likely; details: summary statement
T2 sequence (Q07889 1-1333): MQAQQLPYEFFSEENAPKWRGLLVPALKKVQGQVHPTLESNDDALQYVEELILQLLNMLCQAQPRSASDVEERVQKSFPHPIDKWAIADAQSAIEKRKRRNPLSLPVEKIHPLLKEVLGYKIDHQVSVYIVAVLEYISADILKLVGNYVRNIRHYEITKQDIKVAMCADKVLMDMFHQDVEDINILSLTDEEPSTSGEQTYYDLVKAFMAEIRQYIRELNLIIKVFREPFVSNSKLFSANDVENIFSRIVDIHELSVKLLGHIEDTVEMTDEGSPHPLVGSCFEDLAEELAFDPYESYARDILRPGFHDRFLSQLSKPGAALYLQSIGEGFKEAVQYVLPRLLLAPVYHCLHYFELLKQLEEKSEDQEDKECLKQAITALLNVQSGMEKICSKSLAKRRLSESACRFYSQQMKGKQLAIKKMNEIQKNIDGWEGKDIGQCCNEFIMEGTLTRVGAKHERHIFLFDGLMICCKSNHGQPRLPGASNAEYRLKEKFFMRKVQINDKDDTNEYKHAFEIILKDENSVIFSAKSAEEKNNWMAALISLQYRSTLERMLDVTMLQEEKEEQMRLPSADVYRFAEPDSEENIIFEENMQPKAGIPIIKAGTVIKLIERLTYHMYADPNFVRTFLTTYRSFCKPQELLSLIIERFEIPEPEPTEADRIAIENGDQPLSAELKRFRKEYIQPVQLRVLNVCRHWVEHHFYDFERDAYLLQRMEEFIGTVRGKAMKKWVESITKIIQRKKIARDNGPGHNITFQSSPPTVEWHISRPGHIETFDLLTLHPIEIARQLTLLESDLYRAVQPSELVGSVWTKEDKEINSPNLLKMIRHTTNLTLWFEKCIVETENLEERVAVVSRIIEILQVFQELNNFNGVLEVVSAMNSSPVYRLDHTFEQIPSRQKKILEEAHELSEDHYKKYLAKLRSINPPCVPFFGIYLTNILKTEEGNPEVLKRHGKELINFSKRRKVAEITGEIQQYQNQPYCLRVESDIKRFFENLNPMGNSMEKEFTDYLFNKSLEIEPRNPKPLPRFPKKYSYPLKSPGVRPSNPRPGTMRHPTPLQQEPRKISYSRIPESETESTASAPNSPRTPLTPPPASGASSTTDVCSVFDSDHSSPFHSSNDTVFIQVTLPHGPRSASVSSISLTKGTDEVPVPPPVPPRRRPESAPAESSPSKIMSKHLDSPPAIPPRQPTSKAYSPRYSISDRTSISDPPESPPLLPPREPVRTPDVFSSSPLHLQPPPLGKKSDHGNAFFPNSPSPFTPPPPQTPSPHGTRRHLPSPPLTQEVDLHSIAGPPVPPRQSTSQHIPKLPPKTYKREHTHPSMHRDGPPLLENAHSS

T1 sequence (P08684 whole entry): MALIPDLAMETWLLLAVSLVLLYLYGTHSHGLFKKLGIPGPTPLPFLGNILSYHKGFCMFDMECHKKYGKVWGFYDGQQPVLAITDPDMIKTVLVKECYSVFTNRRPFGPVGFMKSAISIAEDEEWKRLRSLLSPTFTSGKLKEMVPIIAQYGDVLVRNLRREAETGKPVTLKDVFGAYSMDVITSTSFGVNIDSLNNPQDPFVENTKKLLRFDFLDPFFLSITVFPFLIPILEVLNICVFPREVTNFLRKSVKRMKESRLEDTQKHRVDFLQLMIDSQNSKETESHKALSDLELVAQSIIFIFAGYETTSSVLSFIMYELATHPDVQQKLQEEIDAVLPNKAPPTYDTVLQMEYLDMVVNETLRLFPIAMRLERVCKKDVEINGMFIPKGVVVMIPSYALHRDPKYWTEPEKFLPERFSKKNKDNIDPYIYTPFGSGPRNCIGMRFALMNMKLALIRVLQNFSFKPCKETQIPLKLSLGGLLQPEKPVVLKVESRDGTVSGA

Compound: Cc1nc(N[C@H](C)c2cccc(S(F)(F)(F)(F)F)c2)c2cn(C3(CF)CC3)c(=O)cc2n1 [compound of formula I, (R)-6-(1-(fluoromethyl)cyclopropyl)-2-methyl-4-((1-(3-(pentafluorosulfanyl)phenyl)ethyl)amino)pyrido[4,3-d]pyrimidin-7(6H)-one]
- inhibitory effect on the ERK phosphorylation level in DLD-1 cells [1]: significant inhibitory effect
- inhibitory effect on CYP3A4 enzymes (CYP3A4): no inhibitory effect
- inhibitory effect on Mia Paca-2 tumor growth (Mia Paca-2 tumor; alone or in combination with trametinib): significant inhibitory effect
- combined use with trametinib vs single use, Mia Paca-2 tumor growth (Mia Paca-2 tumor; in combination with trametinib): more effective than the single use
- average tumor volume at the end of the treatment vs single-drug group of osimertinib (NCI-H1975 tumor; compound I-1 7.5 mg/kg BID or 25 mg/kg BID + osimertinib 1 mg/kg QD): significantly reduced, and the difference is statistically significant
- synergistic effect of combined administration (NCI-H1975 tumor; compound I-1 25 mg/kg BID + osimertinib 1 mg/kg QD): synergistic effect
- anti-tumor efficacy of combination with osimertinib vs single-drug administration (NCI-H1975 tumor; in combination with osimertinib): significantly better than that of single-drug administration
- inhibitory effect on KRAS G12C-SOS1 (KRAS G12C-SOS1): significant inhibitory effect

— patent publication US20260337190A1, “CRYSTAL FORM OF PYRIDINOPYRIMIDINONE COMPOUND, ACID SALT THEREOF, CRYSTAL FORM OF ACID SALT THEREOF, AND USE” (Wuhan Humanwell Innovative Drug Research and Development …, priority 2022, published 2026)
